# Test results from ChEMBL document CHEMBL3120161, “Antimycobacterial activity of nitrogen heterocycles derivatives: bipyridine derivatives. Part III” (Eur J Med Chem, 2014).
# Assays:
# Format in all cases: functional
# [1] = tested on: Mycobacterium tuberculosis; assay: Antimycobacterial activity against ofloxacin-resistant Mycobacterium tuberculosis H37Rv SRI 4000 at MIC after 7 days by broth microdilution assay relative to control
# [2] = tested on: Mycobacterium tuberculosis; assay: Antimycobacterial activity against ofloxacin-resistant Mycobacterium tuberculosis H37Rv SRI 4000 after 7 days by broth microdilution assay; settings: H37Rv SRI 4000, 168 h
# [3] = tested on: Mycobacterium tuberculosis; assay: Antimycobacterial activity against rifampin-resistant Mycobacterium tuberculosis H37Rv SRI 1367 at MIC after 7 days by broth microdilution assay relative to control
# [4] = tested on: Mycobacterium tuberculosis; assay: Antimycobacterial activity against rifampin-resistant Mycobacterium tuberculosis H37Rv SRI 1367 after 7 days by broth microdilution assay; settings: H37Rv SRI 1367, 168 h
# [5] = tested on: Mycobacterium tuberculosis; assay: Antimycobacterial activity against isoniazid-resistant Mycobacterium tuberculosis H37Rv SRI 1369 at MIC after 7 days by broth microdilution assay relative to control
# [6] = tested on: Mycobacterium tuberculosis; assay: Antimycobacterial activity against isoniazid-resistant Mycobacterium tuberculosis H37Rv SRI 1369 after 7 days by broth microdilution assay; settings: H37Rv SRI 1369, 168 h
compound,measurement,setting,value
CCOC(=O)c1cc(C(=O)c2ccccc2)n2ccc(-c3cc[n+](CC(=O)c4ccc(OC)cc4)cc3)cc12.[Br-],inhibition (INH),[1],61%
same,MIC,[2],1.17 µg/mL
same,inhibition (INH),[3],65%
same,MIC,[4],1.17 µg/mL
same,inhibition (INH),[5],60%
same,MIC,[6],4.69 µg/mL
NNC(=O)c1ccncc1 [ISONIAZID],inhibition (INH),[3],92%
same,MIC,[4],0.02 µg/mL
CO[C@H]1/C=C/O[C@@]2(C)Oc3c(C)c(O)c4c(O)c(c(/C=N/N5CCN(C)CC5)c(O)c4c3C2=O)NC(=O)/C(C)=C\C=C\[C@H](C)[C@H](O)[C@@H](C)[C@@H](O)[C@@H](C)[C@H](OC(C)=O)[C@@H]1C [RIFAMPIN],inhibition (INH),[1],80%
same,MIC,[2],0.05 µg/mL
same,inhibition (INH),[5],56%
same,MIC,[6],0.02 µg/mL
